Laboratory results from US6410790B1, “3-amin3-arylpropan-1-ol compounds, their preparation and use” (priority 1999, dated 2002).

Legend:
[1] = test system: binding site 2 of the sodium channel; assay: BTX binding, sodium channel; conditions: 10 μM, percentage inhibition, [3H]-batrachotoxin A20 α-benzoate 10 nM, rat cerebral cortex synaptosomes
Procedure: Binding Investigations in the Sodium Channel
Binding Site 2 (BTX Binding)
The binding site 2 of the sodium channel is the so-called batrachotoxin (BTX) binding site. [^3H]-batrachlotoxin A20 α-benzoate (10 nM in the assay) was used as ligand. These ion channel particles (synaptosomes) were concentrated from rat cerebral cortex according to the procedure of Gray and Whittaker (E. G. Gray and V. P. Whittaker (1962) J. Anat. 76, 79-88). The radioactivity that is measured in the presence of veratridine (0.3 mM in the assay) is defined as non-specific binding. The material was incubated at 37° C. for 120 minutes. The assay conditions are carried out according to the protocol published by Pauwels, Leysen and Laduron (P. J. Pauwels, J. E. Leysen and P. M. Laduron (1986) Eur. J. Pharmacol. 124, 291-298).
(N=3, i.e. mean values±SEM from 3 independent series of experiments that were carried out in the form of triple parallel experiments).
(§1) For this purpose IC50 values are obtained, which can be converted to inhibitor constants (Ki) according to the “Cheng-Prusoff equation” (Y. C. Clieng and W. H. Prusoff (1973) Biochem. Pharmacol. 22, 3099-3108). The IC50 values were obtained by means of the computer program “Figure P” (version 6.0, Biosoft, Cambridge, England). Km values were calculated according to Lineweaver and Burk (H. Lineweaver and D. Burk (1934) J. Am. Chem. Soc. 56, 658-666). The “Ligand” computer program (version 4, Biosoft, England) was used to obtain Ken values.

[2] = test system: benzothiazepine binding site of the L-type calcium channel; assay: Diltiazem binding, L calcium channel; set-up: species or system rat; conditions: 10 μM, percentage inhibition, [3H]-cis-(+)-diltiazem 5 nM, rat cerebral cortex membranes
Procedure: Binding Investigations in the L Calcium Channel
Benzothiazepine Binding Site (Diltiazem Binding)
The biological membrane material was isolated from the rat cerebral cortex. [^3H]-cis-(+)-diltiazem (5 nM in the assay) was used as ligand. The material was incubated for 20 minutes at 25° C. The radioactivity that is measured in the presence of (±)-diltiazem (10^−6 M in the assay) is defined as non-specific binding. After completion of incubation the non-bound fraction of the radioactive ligand is separated by means of a filtration process using Whatman Glasfiber GF/B membranes. The membranes are washed and the radioactivity is then measured using a β-counter. The method is based on the details published by Schoemaker and Langer (H. Schoemaker and S. Z. Langer (1985) Eur. J. Pharmacol. 111, 273-277).
as §1

NA transporter = target: T1, NA transporter (Rattus norvegicus, UniProt Q63380); assay: synaptosomal noradrenaline uptake inhibition (NA uptake inhibition); type: biochemical; conditions: for inhibition at 1 µM: read-out: NA Uptake Inhibition at 1 μM, 1 μM in the assay, synaptosomes from rat hypothalamus; for NA Uptake Inhibition at 1 μM: 1 μM in the assay, synaptosomes from rat hypothalamus
T1 construct: synaptosomes are isolated fresh from rat brains; from tissue; host or cells: rat hypothalamus synaptosomes (P2 fraction)
Procedure: In order to carry out these in vitro studies, synaptosomes are isolated fresh from rat brains. In each case a so-called “P2” fraction is used, which is prepared according to the protocol of Gray and Whittaker (E. G. Gray and V. P. Whittaker (1962) J. Anat. 76, 79-88).
(in each case N=4, i.e. mean values±SEM from 4 independent series of experiments that were carried out in the form of triple parallel experiments).
as §1

[3] = test system: phenylquinone-induced writhing reaction; assay: phenylquinone-induced writhing test in mice; type: in vivo; conditions: male NMRI mice, phenylquinone i.p. 10 minutes later; for inhibition in vivo at 10 mg/kg: Mus musculus, iv, 10 min, 10 mg/kg intravenously
Procedure: Analgesic Effect in the Writhing Test in Mice
The analgesic effect was investigated in the phenylquinone-induced writhing test in mice (as modified by I. C. Hendershot and J. Forsaith (1959) J. Pharmacol. Exp. Ther. 125, 237-240). Male NMRI mice weighing 25 to 30 g were used for the test. Groups of 10 animals each received by intraperitoineal application, for each substance dose, 0.3 ml/mouse of a 0.02% aqueous solution of phenylquinone (phenylbenzoquinone, Sigma Company, Deisenhofen; solution prepared with addition of 5% of ethanol and kept in a water bath at 45° C.) 10 minutes after intravenous administration of the test substances. The animals were placed individually in observation cages. The number of pain-induced stretching movements (so-called writhing reactions=straightening of the body together with stretching of the rear extremities) was measured by means of a push-button counter 5 to 20 minutes after administration of the phenylquinone. Animals that had received only physiological saline solution served as controls. All substances were tested in the standard dose of 10 mg/kg. The percentage inhibition (% inhibition) of the writhing reaction produced by a substance was calculated according to the following formula: [formula]

T1 sequence (Q63380 1-617): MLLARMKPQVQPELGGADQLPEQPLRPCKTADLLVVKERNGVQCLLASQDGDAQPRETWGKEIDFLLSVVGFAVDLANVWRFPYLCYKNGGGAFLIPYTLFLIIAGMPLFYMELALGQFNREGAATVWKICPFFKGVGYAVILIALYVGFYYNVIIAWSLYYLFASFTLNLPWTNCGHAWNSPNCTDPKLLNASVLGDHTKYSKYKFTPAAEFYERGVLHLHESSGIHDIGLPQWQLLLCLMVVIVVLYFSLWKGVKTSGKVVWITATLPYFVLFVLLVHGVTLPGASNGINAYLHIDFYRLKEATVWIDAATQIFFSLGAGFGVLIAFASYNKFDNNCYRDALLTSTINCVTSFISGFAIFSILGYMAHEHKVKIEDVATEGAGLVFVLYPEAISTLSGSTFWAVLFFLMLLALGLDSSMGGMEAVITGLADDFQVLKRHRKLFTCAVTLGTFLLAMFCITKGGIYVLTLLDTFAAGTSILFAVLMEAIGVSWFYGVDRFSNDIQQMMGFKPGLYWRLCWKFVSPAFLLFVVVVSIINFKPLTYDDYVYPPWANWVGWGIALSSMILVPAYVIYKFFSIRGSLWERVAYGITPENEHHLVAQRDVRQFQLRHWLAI

## CN(C)C(c1cccc(Oc2ccccc2)c1)C1CCCCC1(O)Cc1cccc(C(F)(F)F)c1.Cl (stereo not shown) [Example 53, 2-[dimethylamino-(3-phenoxyphenyl)methyl]-1-(3-trifluoromethylbenzyl)cyclohexanol, hydrochloride]
[1]
  BTX Binding at 10 μM: 97%
[2]
  Diltiazem Binding at 10 μM: 92%
NA transporter
  inhibition at 1 µM: 49%
[3]
  inhibition in vivo at 10 mg/kg: 90%

## CN(C)C(c1ccccc1)C1CCCCC1(O)Cc1cc(F)ccc1F.Cl (stereo not shown) [Example 54, 1-(2,5-difluorobenzyl)-2-(dimethylaminophenylmethyl)cyclohexanol, hydrochloride]
[1]
  BTX Binding at 10 μM: 98%
[2]
  Diltiazem Binding at 10 μM: 76%
NA transporter
  inhibition at 1 µM: 96%
[3]
  inhibition in vivo at 10 mg/kg: 98%

## CN(C)C(c1ccccc1)C1CCCCC1(O)Cc1ccc(F)c(F)c1.Cl (stereo not shown) [Example 55, 1-(3,4-difluorobenzyl)-2-(dimethylaminophenylmethyl)cyclohexanol, hydrochloride]
[1]
  BTX Binding at 10 μM: 94%
[2]
  Diltiazem Binding at 10 μM: 76%
NA transporter
  inhibition at 1 µM: 38%
[3]
  inhibition in vivo at 10 mg/kg: 92%

## CN(C)C(c1ccccc1)C1CCCCC1(O)Cc1c(F)cccc1Cl.Cl (stereo not shown) [Example 56, 1-(2-chloro-6-fluorobenzyl)-2-(dimethylaminophenylmethyl)cyclohexanol, hydrochloride]
[1]
  BTX Binding at 10 μM: 99%
[2]
  Diltiazem Binding at 10 μM: 88%
NA transporter
  inhibition at 1 µM: 92%
[3]
  inhibition in vivo at 10 mg/kg: 94%

## CN(C)C(c1ccccc1)C1CCCCC1(O)Cc1cccc(F)c1F.Cl (stereo not shown) [Example 57, 1-(2,3-difluorobenzyl)-2-(dimethylaminophenylmethyl)cyclohexanol, hydrochloride]
[1]
  BTX Binding at 10 μM: 97%
[2]
  Diltiazem Binding at 10 μM: 83%
NA transporter
  inhibition at 1 µM: 99%
[3]
  inhibition in vivo at 10 mg/kg: 84%

## CN(C)C(c1ccc(Cl)cc1)C1CCCCC1(O)Cc1ccccc1.Cl (stereo not shown) [Example 58, 1-benzyl-2-[(4-chlorophenyl)dimethylaminomethyl]cyclohexanol, hydrochloride]
[1]
  BTX Binding at 10 μM: 100%
[2]
  Diltiazem Binding at 10 μM: 80%
NA transporter
  inhibition at 1 µM: 0%
[3]
  inhibition in vivo at 10 mg/kg: 98%

## CCC(O)(CCc1ccccc1)C(C)C(c1ccccc1)N(C)C.Cl (stereo not shown) [Example 59, 1-dimethylamino-3-ethyl-2-methyl-1,5-diphenylpentan-3-ol, hydrochloride]
[1]
  BTX Binding at 10 μM: 86%
[2]
  Diltiazem Binding at 10 μM: 64%
NA transporter
  inhibition at 1 µM: 26%
[3]
  inhibition in vivo at 10 mg/kg: 59%

## CN(C)C(c1ccccc1Cl)C1CCCCC1(O)Cc1ccccc1Cl.Cl (stereo not shown) [Example 60, 1-(2-chlorobenzyl)-2-[(2-chlorophenyl)dimethylaminomethyl]cyclohexanol, hydrochloride]
[1]
  BTX Binding at 10 μM: 95%
[2]
  Diltiazem Binding at 10 μM: 79%
NA transporter
  inhibition at 1 µM: 56%
[3]
  inhibition in vivo at 10 mg/kg: 63%

## CN(C)C(c1ccc(Br)cc1)C1CCCCC1(O)Cc1ccccc1.Cl (stereo not shown) [Example 61, 1-benzyl-2-[(4-bromophenyl)dimethylaminomethyl]cyclohexanol, hydrochloride]
[1]
  BTX Binding at 10 μM: 98%
[2]
  Diltiazem Binding at 10 μM: 89%
NA transporter
  inhibition at 1 µM: 100%
[3]
  inhibition in vivo at 10 mg/kg: 90%

## CN(C)C(c1ccc(Cl)cc1)C1CCCCC1(O)c1ccc(C(F)(F)F)cc1.Cl (stereo not shown) [Example 62, 2-[(4-chlorophenyl)dimethylaminomethyl]-1-(4-trifluoromethylphenyl)cyclohexanol, hydrochloride]
[1]
  BTX Binding at 10 μM: 93%
[2]
  Diltiazem Binding at 10 μM: 83%
NA transporter
  inhibition at 1 µM: 80%
[3]
  inhibition in vivo at 10 mg/kg: 94%

## CN(C)C(c1ccc(Cl)cc1)C1CCCCC1(O)Cc1cccc(C(F)(F)F)c1.Cl (stereo not shown) [Example 63, 2-[(4-chlorophenyl)dimethylaminomethyl]-1-(3-trifluoromethylbenzyl)cyclohexanol, hydrochloride]
[1]
  BTX Binding at 10 μM: 99%
[2]
  Diltiazem Binding at 10 μM: 95%
NA transporter
  inhibition at 1 µM: 94%
[3]
  inhibition in vivo at 10 mg/kg: 86%

## CN(C)C(c1cccc(Oc2ccccc2)c1)C1CCCCC1(O)Cc1ccc(C(C)(C)C)cc1.Cl (stereo not shown) [Example 64, 1-(4-tert.-butylbenzyl)-2-[dimethylamino-(3-phenoxyphenyl)methyl]cyclohexanol, hydrochloride]
[1]
  BTX Binding at 10 μM: 100%
[2]
  Diltiazem Binding at 10 μM: 87%
NA transporter
  inhibition at 1 µM: 36%
[3]
  inhibition in vivo at 10 mg/kg: 88%

## CN(C)C(c1ccc(C#N)cc1)C1CCCCC1(O)c1ccc(C(F)(F)F)cc1.Cl (stereo not shown) [Example 65, 4-{dimethylamino-[2-hydroxy-2-(4-trifluoromethylphenyl)cyclohexyl]methyl}benzonitrile, hydrochloride]
[1]
  BTX Binding at 10 μM: 78%
[2]
  Diltiazem Binding at 10 μM: 72%
NA transporter
  inhibition at 1 µM: 0%
[3]
  inhibition in vivo at 10 mg/kg: 76%

## Cc1ccccc1C(C1CCCCC1(O)c1ccccc1)N(C)C.Cl (stereo not shown) [Example 66, 2-(dimethylamino-o-tolylmethyl)-1-phenylcyclohexanol, hydrochloride]
[1]; hydrochloride
  BTX Binding at 10 μM: 89%
[2]; hydrochloride
  Diltiazem Binding at 10 μM: 65%
NA transporter; hydrochloride
  NA Uptake Inhibition at 1 μM: 15%
[3]
  inhibition in vivo at 10 mg/kg: 91%

## Cc1ccccc1C(C1CCCCC1(O)Cc1ccccc1)N(C)C.Cl (stereo not shown) [Example 67, 1-benzyl-2-(dimethylamino-o-tolylmethyl)cyclohexanol, hydrochloride]
[1]
  BTX Binding at 10 μM: 97%
[2]
  Diltiazem Binding at 10 μM: 98%
NA transporter
  inhibition at 1 µM: 83%
[3]
  inhibition in vivo at 10 mg/kg: 84%

## CN(C)C(c1ccccc1)C1CCCCC1(O)CCCc1ccccc1.Cl (stereo not shown) [Example 68, 2-(dimethylaminophenylmethyl)-1-(3-phenylpropyl)cyclohexanol, hydrochloride]
[1]
  BTX Binding at 10 μM: 98%
[2]
  Diltiazem Binding at 10 μM: 88%
NA transporter
  inhibition at 1 µM: 49%
[3]
  inhibition in vivo at 10 mg/kg: 55%

## CN(C)C(c1ccccc1Cl)C1CCCCC1(O)CCc1ccc(F)cc1.Cl (stereo not shown) [Example 69, 2-[(2-chlorophenyl)dimethylaminomethyl]-1-[2-(4-fluorophenyl)ethyl]cyclohexanol, hydrochloride]
[1]
  BTX Binding at 10 μM: 96%
[2]
  Diltiazem Binding at 10 μM: 93%
NA transporter
  inhibition at 1 µM: 76%
[3]
  inhibition in vivo at 10 mg/kg: 45%

## CN(C)C(c1cccs1)C1CCCCC1(O)Cc1cccc(C(F)(F)F)c1.Cl (stereo not shown) [Example 70, 2-[dimethylaminothiophen-2-ylmethyl]-1-(3-trifluoromethylbenzyl)cyclohexanol, hydrochloride]
[1]
  BTX Binding at 10 μM: 93%
[2]
  Diltiazem Binding at 10 μM: 91%
NA transporter
  NA Uptake Inhibition at 1 μM: 74%
[3]
  % Inhibition of the writhing reaction at 10 mg/kg intravenously: 98%

## COC(=O)c1ccc(C2(O)CCCCC2C(c2ccccc2)N(C)C)cc1.Cl (stereo not shown) [Example 71, Methyl-4-[2-(dimethylaminophenylmethyl)-1-hydroxycyclohexyl]benzoate, hydrochloride]
[1]
  BTX Binding at 10 μM: 81%
[2]
  Diltiazem Binding at 10 μM: 74%
NA transporter
  inhibition at 1 µM: 88%
[3]
  inhibition in vivo at 10 mg/kg: 55%
